Where two headings read alike, the source gives them in different places. Marks after values point to notes of the source that are not given here.
Tests used:
[1] = Single-dose oral toxicokinetic study of prodrugs in rats; assay type: in vivo, rat; conditions: CD, rat, plasma; for concentration at 24 h / half-life / Cmax: analyte = label; for concentration at 24 h: read-out: C24 h; for half-life: read-out: T½ (converted); for AUC: read-out: AUC
Experimental: A 1-day oral toxicokinetic study in rats was conducted using the prodrug Iab (monolysine salt). Iab was administered at dosages of 16, 72, and 267 mg/kg (free acid) by oral gavage to three male rats/group using water as the vehicle (solution formulation). The dosages of prodrug free acid correspond to IVa (parent) molar equivalent dosages of 13, 57, and 211 mg/kg, respectively. The endpoint evaluated was plasma toxicokinetics of Iab and IVa in the individual rats.
A 1-day oral toxicokinetic study in rats was conducted by using the prodrug Ibb (monolysine salt). Ibb was administered at dosages of 19, 64, and 236 mg/kg (free acid) by oral gavage to three male rats/group using water as the vehicle (solution formulation).
A 1-day oral toxicokinetic study in rats was conducted using the prodrug Icb (disodium salt). Icb was administered at dosages of 5, 25, and 200 mg/kg (free acid) by oral gavage to three male rats/group using water as the vehicle (solution formulation).

[2] = Single-dose toxicokinetic and tolerability study of prodrugs in dogs; assay type: in vivo, dog; conditions: for half-life: read-out: T½ (converted)
Experimental: A multi-phase study was conducted to evaluate the tolerability of the prodrug, Iab (monolysine salt) at dosages of 24, 90, or 240 mg/kg (free acid, molar equivalent to 19, 71, or 190 mg/kg of parent IVa, respectively) and the toxicokinetics of lab and IVa (4). Iab was administered to two female dogs/group once daily either as an aqueous solution (24 or 90 mg/kg) or dry-filled capsules (24, 90 [once and twice daily] or 240 mg/kg). The endpoints were: clinical signs, body weight, food consumption, and plasma toxicokinetics of lab and IVa. In all cases, a 1-week washout period was used between doses for all phases of the study. […]
On day 1, Icb was administered to one dog/sex/group once daily in dry-filled capsules at the above dosages. A 1-week washout period was used between doses in the study. On day 8, Icb was administered to one dog/sex/group once daily as an aqueous solution at 25 mg/kg or twice daily in dry-filled capsules at 46 or 125 mg/kg BID.

[3] = IV and PO pharmacokinetic studies of prodrug salts (Iab, Ibb, Icb) in the rat, with historical parent data; assay type: in vivo, Sprague-Dawley rats; conditions: for Tmax: read-out: Tmax (hr), PO; for Cmax: read-out: Cmax (μM), PO
Experimental: (§1) All blood samples (0.3 mL) were colleted in microtainers containing K2EDTA (Becton Dickinson, Franklin Lakes, N.J.) and placed on chipped ice. After centrifugation, plasma was separated and stored at −20° C. until analysis. The mono-lysine salt of Iab (Form 3, Lot 1) was used for the pharmacokinetic studies. The dosing solutions of Iab were prepared in either sterile water (for IV administration in dogs and monkeys) or distilled water (for all other dose administration).
Male Sprague-Dawley rats (300-350 g, Hilltop Lab Animals, Inc., Scottsdale, Pa.) with cannulas implanted in the jugular vein were used. The rats were fasted overnight in the PO pharmacokinetic studies. Blood samples were collected from the jugular vein.
In the IV study, Iab was delivered at 1.4 mg/kg (free acid, or 1.1 mg/kg of IVa equivalent) as a bolus over 0.5 min (n=3).
In the PO study, Iab was administered at 7.9 mg/kg (free acid, or 6.3 mg/kg of IVa equivalent) by oral gavage (n=3). The concentration of the dosing solution was 4.0 mg/mL, and the dosing volume was 2 mL/kg.
The pharmacokinetic parameters of Iab and IVa were calculated by Non-Compartmental Analysis using the […]™ software program (version 4.0.2, InnaPhase Co., Philadelphia, Pa.). The Cmax and Tmax values were recorded directly from experimental observations. The AUC0-n and AUCtot values were calculated using the mixed log-linear trapezoidal summations. The total body clearance (Cl), mean residence time (MRT), and the steady state volume of distribution (Vss) were also calculated after intravenous administration. The absolute oral bioavailability (expressed as %) was estimated by taking the ratio of dose-normalized AUC values after oral doses to those after intravenous doses.
as §1, with “Ibb” for “Iab”, “3)” for “3, Lot 1)”
(§2) The Cmax and Tmax values were recorded directly from experimental observations. The AUC0-n and AUCtot values were calculated using the mixed log-linear trapezoidal summations. The total body clearance (Cl), mean residence time (MRT), and the steady state volume of distribution (Vss) were also calculated after intravenous administration. The absolute oral bioavailability (expressed as %) was estimated by taking the ratio of dose-normalized AUC values after oral doses to those after intravenous doses.
In the IV study, Icb was delivered at 1.4 mg/kg (free acid, or 1.1 mg/kg of IVe equivalent) as a bolus over 0.5 min (n=3).
In the PO study, Icb was administered at 6.9 mg/kg (free acid, or 5.6 mg/kg of IVe equivalent) by oral gavage (n=3).
as §2

[4] = IVa, Iab 24 mg/kg Solution, Dogs #1201, #1202
[5] = IVa, Iab 90 mg/kg Solution, Dogs #3201, #3202
[6] = Table 14: 90 mg/kg, Dogs #1201, #1202, 90 mg/kg
[7] = Table 14: 240 mg/kg, Dogs #2201, #2202, 240 mg/kg
[8] = female, dog, plasma, po, 24 mg/kg, IVa, Iab 24 mg/kg Dry-filled capsule, Dogs #4201, #4202
[9] = female, dog, plasma, po, 24 mg/kg, IVa, Iab 24 mg/kg Solution, Dogs #1201, #1202
[10] = female, dog, plasma, po, 90 mg/kg, IVa, Iab 90 mg/kg Solution, Dogs #3201, #3202
[11] = female, dog, plasma, po, 90 mg/kg, Table 14: 90 mg/kg, Dogs #1201, #1202
[12] = female, dog, plasma, po, 240 mg/kg, Table 14: 240 mg/kg, Dogs #2201, #2202

COc1ncc(OC)c2c(C(=O)C(=O)N3CCN(C(=O)c4ccccc4)CC3)c[nH]c12 [IVa, N-(benzoyl)-N′-[(4,7-dimethoxy-6-azaindol-3-yl)-oxoacetyl]piperazine]
concentration at 24 h ([1]; male rats, Iab 16 mg/kg PO): 90 nM
half-life ([1]; male rats, Iab 16 mg/kg PO): 192 min
concentration at 24 h ([1]; male rats, Iab 72 mg/kg PO): 27 nM
half-life ([1]; male rats, Iab 72 mg/kg PO): 138 min
AUC ([1]; male rats, Iab 267 mg/kg PO, AUC from zero to ∞): 1160 µM·h
concentration at 24 h ([1]; male rats, Iab 267 mg/kg PO): 1900 nM
half-life ([1]; male rats, Iab 267 mg/kg PO): 204 min
Cmax ([1]; male rats, single oral dose Iab 16 mg/kg (13 mg/kg IVa molar equiv.), water): 26 µM
Cmax ([1]; male rats, single oral dose Iab 72 mg/kg (57 IVa equiv.)): 104 µM
Cmax ([1]; male rats, single oral dose Iab 267 mg/kg (211 IVa equiv.)): 214 µM
AUC ([1]; male, po, 16 mg/kg): 67 µM·h
AUC ([1]; male, po, 72 mg/kg): 261 µM·h
Cmax ([2]; IVa in female dogs, Iab 24 mg/kg (19 IVa equiv.), Dry-filled capsule, Dogs #4201, #4202): 85.6 µM
Cmax ([2]; IVa in female dogs, Iab 24 mg/kg (19 IVa equiv.), Solution, Dogs #1201, #1202): 66.5 µM
Cmax ([2]; IVa in female dogs, Iab 90 mg/kg (71 IVa equiv.), Solution, Dogs #3201, #3202): 125 µM
AUC0-∞ ([2]; IVa, Iab 24 mg/kg Dry-filled capsule, Dogs #4201, #4202): 514 µM·h
concentration at 24 h ([2]; IVa, Iab 24 mg/kg Dry-filled capsule, Dogs #4201, #4202, read-out: C24h): 0.87 µM
AUC0-∞ [2, 4]: 330 µM·h
T½ [2, 4]: 3.1 h
concentration at 24 h ([2]; IVa, Iab 24 mg/kg Solution, Dogs #1201, #1202, read-out: C24h): 0.33 µM
AUC0-∞ [2, 5]: 838 µM·h
T½ [2, 5]: 3.9 h
concentration at 24 h ([2]; IVa, Iab 90 mg/kg Solution, Dogs #3201, #3202, read-out: C24h): 2.2 µM
AUC0-∞ [2, 6]: 960 µM·h
T½ [2, 6]: 2.9 h
Cmax ([2]; Table 14: 240 mg/kg (190 IVa equiv.), Formulation Solution, Dogs #2201, #2202, 240 mg/kg): 189 µM
AUC0-∞ [2, 7]: 1584 µM·h
T½ [2, 7]: 4.5 h
Cmax ([2]; Table 14: 180 (90 BID) mg/kg (142 IVa equiv.), Dry-filled capsule, Dogs #3201, #3202): 248 µM
AUC0-∞ ([2]; Table 14: 180 (90 BID) mg/kg, Dogs #3201 (AUC from zero to 24 h), #3202): 2485 µM·h
concentration at 24 h ([2]; Table 14: 180 (90 BID) mg/kg, Dogs #3201, #3202, read-out: C24h): 50 µM
Cmax ([2]; Table 14: IVa in female dogs, 90 mg/kg (71 IVa equiv.), Formulation Solution, Dogs #1201, #1202, 90 mg/kg): 152 µM
time post-dose at which mean Cmax of parent was achieved ([2]; dogs, once daily (QD) dosing of prodrug): 1 to 2 h
concentration at 24 h ([2]; female, dog, plasma, oral, 24 mg/kg, IVa, Iab 24 mg/kg Dry-filled capsule, Dogs #4201, #4202, read-out: C24 h): 1.4 µM
concentration at 24 h ([2]; female, dog, plasma, oral, 24 mg/kg, IVa, Iab 24 mg/kg Solution, Dogs #1201, #1202, read-out: C24 h): 0.61 µM
concentration at 24 h ([2]; female, dog, plasma, oral, 90 mg/kg, IVa, Iab 90 mg/kg Solution, Dogs #3201, #3202, read-out: C24 h): 3.2 µM
concentration at 24 h ([2]; female, dog, plasma, oral, Table 14: 180 (90 BID) mg/kg, Dogs #3201, #3202, read-out: C24 h): 34 µM
Cmax ([2]; female, dog, plasma, po, 24 mg/kg, IVa in female dogs, Iab 24 mg/kg (19 IVa equiv.), Dry-filled capsule, Dogs #4201, #4202): 79.7 µM
Cmax ([2]; female, dog, plasma, po, 24 mg/kg, IVa in female dogs, Iab 24 mg/kg (19 IVa equiv.), Solution, Dogs #1201, #1202): 72.3 µM
AUC(0-inf) [2, 8]: 486 µM·h
half-life [2, 8]: 252 min
AUC(0-inf) [2, 9]: 465 µM·h
half-life [2, 9]: 192 min
Cmax ([2]; female, dog, plasma, po, 90 mg/kg, IVa in female dogs, Iab 90 mg/kg (71 IVa equiv.), Solution, Dogs #3201, #3202): 124 µM
AUC(0-inf) [2, 10]: 844 µM·h
half-life [2, 10]: 264 min
AUC(0-inf) [2, 11]: 1740 µM·h
half-life [2, 11]: 216 min
Cmax ([2]; female, dog, plasma, po, 90 mg/kg, Table 14: IVa in female dogs, 90 mg/kg (71 IVa equiv.), Formulation Solution, Dogs #1201, #1202): 214 µM
Cmax ([2]; female, dog, plasma, po, 240 mg/kg, Table 14: 240 mg/kg (190 IVa equiv.), Formulation Solution, Dogs #2201, #2202): 172 µM
AUC(0-inf) [2, 12]: 1190 µM·h
half-life [2, 12]: 222 min
Cmax ([2]; female, dog, plasma, po, Table 14: 180 (90 BID) mg/kg (142 IVa equiv.), Dry-filled capsule, Dogs #3201, #3202): 311 µM
AUC(0-inf) ([2]; female, dog, plasma, po, Table 14: 180 (90 BID) mg/kg, Dogs #3201 (AUC from zero to 24 h), #3202): 3300 µM·h
AUC ([3]; Sprague-Dawley, plasma, historical parent, IV 1 mg/kg, read-out: AUCtot (μM·hr), IV): 3.3 ± 1.1 µM·h
MRT ([3]; Sprague-Dawley, plasma, historical parent, IV 1 mg/kg, read-out: MRT (hr), IV): 2.2 ± 1.5 h
Vd ([3]; Sprague-Dawley, plasma, historical parent, IV 1 mg/kg, read-out: Vdss (L/kg), IV): 1.5 ± 0.25 L/kg
half-life ([3]; Sprague-Dawley, plasma, historical parent, IV 1 mg/kg, read-out: t1/2 (hr), IV (converted)): 2.4 ± 0.32 h
Tmax ([3]; Sprague-Dawley, plasma, historical parent, PO 5 mg/kg): 2 h
half-life ([3]; Sprague-Dawley, plasma, historical parent, PO 5 mg/kg, read-out: t1/2 (hr), PO (converted)): 1.7 ± 0.92 h
CLtot (mL/min/kg), IV ([3]; historical parent, IV 1 mg/kg): 13 ± 4.0 mL/min/kg
AUCtot (μM·hr), PO ([3]; historical parent, PO 5 mg/kg): 15 ± 6.3 µM·h
Bioavailability (%) ([3]; historical parent, PO 5 mg/kg): 90%
Cmax ([3]; historical parent, PO 5 mg/kg): 4.5 ± 1.5 µM
AUC ([3]; male, Sprague-Dawley, plasma, 7.9 mg/kg, after oral prodrug, analyte = label, ND = not detected (<5 nM), read-out: AUCtot (μM·hr), PO): 13 ± 1.4 µM·h
Cmax ([3]; male, Sprague-Dawley, plasma, 7.9 mg/kg, after oral prodrug, analyte = label, ND = not detected (<5 nM)): 3.9 ± 0.98 µM
half-life ([3]; male, Sprague-Dawley, plasma, 7.9 mg/kg, parent after oral prodrug, read-out: t1/2 (hr), PO (converted)): 1.5 ± 0.24 h
AUC ([3]; male, Sprague-Dawley, plasma, after IV prodrug (~1 mg/kg parent equivalent), analyte = label, read-out: AUCtot (μM·hr), IV): 5.4 ± 0.93 µM·h
half-life ([3]; male, Sprague-Dawley, plasma, after IV prodrug, analyte = label, read-out: t1/2 (hr), IV (converted)): 4.4 ± 1.9 h
bioavailability ([3]; male, Sprague-Dawley, plasma, oral prodrug, calculated from historical IV data of parent, read-out: Bioavailability (%) of parent from prodrug): 62%
Tmax ([3]; male, Sprague-Dawley, plasma, parent after oral prodrug (~5-6 mg/kg parent equivalent)): 0.83 h
PO AUC Ratio of parent ([3]; oral prodrug vs historical parent): 0.69*
bioavailability ([3]; plasma, po, range over rats, dogs and monkeys, read-out: oral bioavailabilities of parent after administration of prodrug): 62 to 94%

Source: patent publication US20150315218A1, “SALTS OF PRODRUGS OF PIPERAZINE AND SUBSTITUTED PIPERIDINE ANTIVIRAL AGENTS” (Bristol-Myers Squibb Company, priority 2004, published 2015)
